Measured values from patent US20040039266A1, “Apparatus and method for measurement of biological structures” (priority 2000, published 2004).

How the values were obtained:
NOS = assay: Functional detection of NOS transfection in mouse mesenteric arteries by absorption spectroscopy
From the text: Mouse 1st order mesenteric arteries are dissected out and maintained in Optimem I supplemented with 10% foetal bovine serum. cDNAs (for NOS) inserted into appropriate plasmids are mixed with LipofectAMINE according to the manufacturers instructions. Two arteries are set up in separate perfusion chambers; the first tissue (A) acts as a control (receives LipofectAMINE and plasmids without the cDNA insert), the second tissue (B) receives LipofectAMINE with plasmids containing the NOS cDNA insert. The arteries are exposed to the appropriate transfection solutions for 8 hours.
After 8 hours, the unit switches automatically and perfuses the vessels with normal PSS. Analysis of the lumen diameter via absorption spectroscopy begins, providing continual information on the contractile state of the artery.
Functional detection of NOS activity is achieved by way of a two-stage protocol. Firstly, concentration-response curves to ACh are conducted in both vessels. During the concentration-response curve, changes in the state of the blood vessels are continuously monitored by absorption spectroscopy. ACh selectively activates expressed NOS synthase and causes release of the vasodilator nitric oxide (NO). […] The control vessel should display little vasodilation to ACh, as NOS cDNA was not transfected in this tissue.
Both vessels are then perfused with normal PSS for thirty minutes. […]

[1] = test system: 3rd order mesenteric arteries; assay: Absorption spectroscopy of agonist-induced vasoconstriction in pressurised rat mesenteric arteries; conditions: increasing concentrations; normotensive male Wistar rat arteries, 60 mmHg, 37° C., PSS
Experimental: 3rd order mesenteric arteries from normotensive male Wistar rats were set up in two perfusion chambers in normal physiological salt solution (PSS), at 37° C. and gassed with 95% O2/5% CO2. The vessels were pressurised to 60 mmHg and allowed to equilibrate for 30 minutes. Thereafter, one vessel acted as a control and the other vessel received increasing concentrations of the thromboxane A2 mimetic, U46619. Transmission spectra were recorded at one second intervals and analysed according to the methods described above.
The optical extinction model described above was used to accurately and continuously measure lumen diameter.

**Q.** For `CC(=O)OCC[N+](C)(C)C` [ACh], which “response of NOS cDNA-transfected blood vessel to ACh” value (NOS; concentration-response curve, NOS-knockout mouse 1st order mesenteric artery after 8 hours transfection) is on record?
**A.** The value was “vasodilation”.

**Q.** For `COC(=O)[C@@H](N)CCCNC(=N)N[N+](=O)[O-]` [L-NAME], which “effect on ACh responses (concentration response curve repeated in presence of inhibitor)” value (NOS; NOS cDNA-transfected mouse mesenteric artery) is on record?
**A.** The value was “abolish further responses to ACh”.

**Q.** Which “vasoconstriction (change in lumen diameter) detected via shifts in transmission spectra” value [1] does the source give for `CCCCC[C@H](O)/C=C/[C@@H]1[C@@H](C/C=C\CCCC(=O)O)[C@H]2CO[C@@H]1C2` [U46619] here?
**A.** The value was “vasoconstriction was detected”.
